One compound from patent publication US9457018B2, “Method for combating adverse effects arising from antipsychotic treatment” (Saniona A/S, priority 2008, dated 2016) can be followed below.

The assay can be described thus: Olanzapine-induced weight gain in a rat model of antipsychotic drug induced obesity (three weeks study). As to conditions: tesofensine 2.0 mg/kg s.c. co-treatment with olanzapine 2.0 mg/kg p.o. from day 15, for 7 days, female SPRD rats. Format: in vivo, Female Sprague-Dawley (SPRD) rats. How it is done: Female Sprague-Dawley (SPRD) rats were placed on 10% fat kcal futter. The rats were tagged subcutaneously with a microship in the neck and placed in an automatized food intake monitoring system. […] Co-administration of vehicle or tesofensine continued for 7 days in total. Body weight and food intake was measured on a daily basis, and body weight gain and cumulative food intake was calculated. Data were evaluated using a two-way ANOVA with Bonferroni's post-hoc test (daily body weight gain and food intake) or a one-way ANOVA with Tukey's post-hoc test.

Structures are written as SMILES.

In the case of `CCOC[C@@H]1[C@@H](c2ccc(Cl)c(Cl)c2)C[C@@H]2CC[C@H]1N2C` [tesofensine, (1R,2R,3S,5S)-3-(3,4-dichlorophenyl)-2-(ethoxymethyl)-8-methyl-8-azabicyclo[3.2.1]octane], the “effect on hypophagic response to olanzapine (food intake)” value was “completely prevented” and the “effect on olanzapine-induced body weight gain” value is recorded as “completely prevented”. For the setting “listed as Tesofensine”, the “effect on hypophagic response to olanzapine (food intake)” value is “prevents” and the “effect on olanzapine-induced body weight gain” value was “prevents”.
